Like-named read-outs stand apart in the source and are kept apart here.
Legend:
[1] = compared with ritodrine; cited from earlier work
[2] = molecular target: T1, oxytocin receptor ([^3 H]OT binding, uterine tissue) (Rattus norvegicus, UniProt P70536); experiment: [3H]oxytocin radioligand binding competition assay, rat uterus; design: species or system rat (Sprague-Dawley)
T1 construct: tissue Taconic Farms, Germantown, N.Y. (animals); host or cells: uterus of nonpregnant adult Sprague-Dawley rats pretreated with diethylstilbestrol propionate, crude membranes
T1 sequence (P70536 1-388): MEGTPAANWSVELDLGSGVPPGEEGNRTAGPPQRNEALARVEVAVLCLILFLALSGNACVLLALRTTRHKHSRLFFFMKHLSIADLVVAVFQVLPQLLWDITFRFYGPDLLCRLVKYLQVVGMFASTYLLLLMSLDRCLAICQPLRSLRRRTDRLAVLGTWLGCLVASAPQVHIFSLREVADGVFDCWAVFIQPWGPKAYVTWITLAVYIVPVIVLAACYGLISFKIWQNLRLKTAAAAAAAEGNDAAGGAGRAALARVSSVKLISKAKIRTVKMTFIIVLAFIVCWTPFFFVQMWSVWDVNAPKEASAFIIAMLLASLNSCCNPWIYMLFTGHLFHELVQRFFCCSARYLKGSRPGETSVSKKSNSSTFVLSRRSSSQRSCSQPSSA
Protocol: RADIOLIGAND BINDING ASSAYS
Ther., 256(1): 304-308 (1991)]. Uterine tissue was taken from nonpregnant adult Sprague-Dawley rats (Taconic Farms, Germantown, N.Y.) pretreated (18-24 h) with diethylstilbestrol propionate (DES; 300 μg/kg, i.p.). Uterine tissue (full thickness) was also taken with informed consent from nonlabor pregnant women undergoing cesarean section at 38 to 39 weeks gestation (Oregon Health Sciences Center, Portland, Oreg.). Liver and kidney medulla samples were taken from male rats and from human surgical and early postmortem donors (National Disease Research Interchange, Philadelphia Pa.; Analytical Biological Services, Wilmington, Del.).
Nonspecific binding was determined using 1 μM unlabeled OT or AVP in their respective assays. The binding reactions were initiated by the addition of tissue preparation and terminated by filtration using a Skatron cell harvester (model 7019, Skatron, Inc., Sterling, Va.). […] The final protein concentration for the various tissues in each assay ranged from 150 to 300 μg/ml [Lowry, P. H.; Rosebrough, N. J.; Farr, A. L.; Randall, R. J.; J. Biol. Chem., 193:265-275 (1951)].
Data is either reported as a given percentage of inhibition at a specified concentration,or if an IC50 was calculated, as a nanomolar concentration.

[3] = cited from earlier work
uterus = experiment: uterine contraction in situ in nonpregnant rat; type: in vivo, rat (Sprague-Dawley); conditions: i.v., DES-pretreated anesthetized rats
Protocol: 2. OT antagonist activity in the nonpregnant rat
The procedure for measuring isometric contraction of the uterus in situ was adapted from that of Chan et al. [1974] as previously described [Pettibone et al., 1989]. Sprague-Dawley rats (200-300 g, Taconic Farms, Germantown, N.Y.) pretreated with DES (0.25 mg/kg, i.p.; 18 h) were anesthetized with urethane (1.75 g/kg, i.p.), a tracheal cannula was inserted, and a femoral vein was cannulated. The left uterine horn was exposed, and the anterior part of the horn was secured with surgical silk to an anchor post. A second ligature about 3 cm posterior to the first tie was connected to a force transducer and maintained at a tension of 1 g. Signals from the transducer were amplified and recorded. The contractile response of the uterus to OT was quantified by computerized measurement of the area under the contraction-time curve for a 10-min period immediately after the injection of OT. The following protocol was adopted for most experiments. […] The contractile response obtained from the third injection was set as 100%. Areas determined after each injection was expressed as a percentage of the area obtained for the third injection. […] The dose of test compound required to reduce the response to OT by 50% (AD50) was calculated from the contractile areas obtained after the fourth injection of OT (i.e., 5 min postinfusion of test compound). […]

Row | SMILES | IC50 [2] [µM] | also measured
1 | CCO [Ethanol] | – | effectiveness in preventing premature labor [1]: as effective as ritodrine in preventing premature labor; reduction in incidence of fetal respiratory distress [1]: does not produce a corresponding reduction in the incidence of fetal respiratory distress
2 | COc1ccc(CC(=O)N2CCC3(C=Cc4ccccc43)CC2)c(OC)c1 [Example 1, 1'-(2,4-Dimethoxyphenylacetyl)-spiro[1H]indene-1,4'-piperidine] | 0.4 | –
3 | O=C(Nc1ccc(CC(=O)N2CCC3(C=Cc4ccccc43)CC2c2ccccc2)cc1)c1ccc2[nH]cnc2c1 (stereo not drawn) [Example 2, 1'-(4-(Benzimidazole-5-carboxylamino)phenylacetyl)-2'-phenylspiro[1H]indene-1,4'-piperidine] | 0.12 | –
4 | O=C(Nc1ccc(CC(=O)N2CCC3(C=Cc4ccccc43)CC2)cc1)c1ccc2cc[nH]c2c1 [Example 4, 1'-(4-(Indole-6-carboxylamino)phenylacetyl)spiro[1H]indene-1,4'-piperidine] | 1.6 | –
5 | COc1ccc(CC(=O)N2CCN(c3ccccc3C)CC2)c(OC)c1 [Example 6, 1-(2,4-Dimethoxyphenylacetyl)-4-(2-methylphenyl)piperazine] | 0.54 | –
6 | COc1ccc(CC(=O)N2CCN(c3ccccc3C)CC2C(N)=O)c(OC)c1 (stereo not drawn) [Example 7, 1-(2,4-Dimethoxyphenylacetyl)-4-(2-methylphenyl)piperazine-2-carboxamide] | 0.08 | –
7 | Cc1ccccc1N1CCN(C(=O)Cc2ccc(NC(=O)c3ccc4[nH]cnc4c3)cc2)C(C(N)=O)C1 (stereo not drawn) [Example 8, 1-(4-(Benzimidazol-5-carboxylamino)phenylacetyl)-4-(2-methylphenyl)piperazine-2-carboxamide] | 0.03 | –
8 | COc1cc(OC2CCN(C(C)=O)CC2)ccc1CC(=O)N1CCN(c2ccccc2C)CC1C(N)=O (stereo not drawn) [Example 9, 1-(2-Methoxy-4-(1-acetyl-4-piperidyloxy)phenylacetyl)-4-(2-methylphenyl)piperazine-2-carboxamide] | 0.034 | –
9 | CCN(CC)CCS(=O)(=O)N1CCC(Oc2ccc(CC(=O)N3CCN(c4ccccc4C)CC3C(N)=O)c(OC)c2)CC1 (stereo not drawn) [Example 11, 1-(2-Methoxy-4-(1-(2-(N,N-Diethylamino)ethylsulfonyl)-4-piperidyloxy)phenylacetyl)-4-(2-methylphenyl)piperazine-2-carboxamide] | 0.021 | –
10 | COc1cc(OC2CCN(S(=O)(=O)CCNC3CC3)CC2)ccc1CC(=O)N1CCN(c2ccccc2C)CC1C(N)=O (stereo not drawn) [Example 12, 1-(2-Methoxy-4-(1-(2-(N-cyclopropylamino)-ethylsulfonyl)-4-piperidyloxy)phenylacetyl)-4-(2-methylphenyl)piperazine-2-carboxamide] | 0.02 | –
11 | COc1cc(OC2CCN(c3c(O)c(=O)c3=O)CC2)ccc1CC(=O)N1CCN(c2ccccc2C)CC1C(N)=O (stereo not drawn) [Example 14, 1-(2-Methoxy-4-(1-(3-hydroxy-3-cyclobutene-1,2-dion-4-y)-4-piperidyloxy)phenylacetyl)-4-(2-methylphenyl)piperazine-2-carboxamide] | – | IC50 ([2]; read-out: Result For [^3 H]OT (IC50), rat uterus membranes, 1 nM [^3 H]OT): 0.024 µM
12 | COc1cc(OC2CCN(Cc3cccnc3)CC2)ccc1CC(=O)N1CCN(c2ccccc2C)CC1C(N)=O (stereo not drawn) [Example 15, 1-(2-Methoxy-4-(-1-((pyrid-3-yl)methyl)-4-piperidyloxy)phenylacetyl)-4-(2-methylphenyl) piperazine-2-carboxamide] | 0.028 | –
13 | O=S(=O)([O-])[O-].[Mg+2] [Magnesium sulfate] | – | toxicity above therapeutic plasma range ([3]; plasma concentrations above 4 to 8 mg/dL): can cause inhibition of cardiac conduction and neuromuscular transmission, respiratory depression and cardiac arrest
14 | CC[C@H](C)[C@@H]1NC(=O)[C@H](Cc2ccc(O)cc2)NC(=O)[C@@H](N)CSSC[C@@H](C(=O)N2CCC[C@H]2C(=O)N[C@@H](CC(C)C)C(=O)NCC(N)=O)NC(=O)[C@H](CC(N)=O)NC(=O)[C@H](CCC(N)=O)NC1=O [OT, oxytocin] | – | ED50 dose of OT (uterine contraction) (uterus): ~1 µg/kg
15 | CC(NCCc1ccc(O)cc1)C(O)c1ccc(O)cc1 (stereo not drawn) [Ritodrine] | – | side effects ([3]; tocolytic use, in the mother): causes a number of cardiovascular and metabolic side effects in the mother, including tachycardia, increased renin secretion, hyperglycemia (and reactive hypoglycemia in the infant)
16 | CC(C)(C)NCC(O)c1ccc(O)c(CO)c1 (stereo not drawn) [albuterol] | – | side effects ([3]; in vivo): side effects similar to those of ritodrine
17 | CC(C)(C)NCC(O)c1cc(O)cc(O)c1 (stereo not drawn) [terbutaline] | – | side effects ([3]; tocolytic use, in the mother): side effects similar to those of ritodrine

— patent US5756504A, “Tocolytic oxytocin receptor antagonists” (priority 1996, dated 1998)
